“And” between values parts separate entries of the source, which are not always exact repeats. Equal entries are not always repeated.
Biological target: T1, POsterior Segregation (Caenorhabditis elegans, UniProt G5EF15)
T1 sequence (G5EF15 whole entry): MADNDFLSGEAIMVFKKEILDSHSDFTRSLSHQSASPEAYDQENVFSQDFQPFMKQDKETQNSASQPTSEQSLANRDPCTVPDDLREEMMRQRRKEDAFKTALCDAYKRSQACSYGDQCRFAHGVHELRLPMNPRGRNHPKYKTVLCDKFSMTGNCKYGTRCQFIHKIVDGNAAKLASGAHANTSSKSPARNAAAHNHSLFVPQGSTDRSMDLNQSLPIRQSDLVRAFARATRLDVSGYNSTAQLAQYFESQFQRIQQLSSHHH
Test: disruptors of C. elegans POS-1 RNA interaction – biochemical, fluorescence polarization, dose response (AID 1964)

Row | SMILES | EC50
1 | CCCCN1C(=O)NC(=O)C(=CNNC(=O)c2ccncc2)C1=O [Isonicotinic acid N'-[1-butyl-2,4,6-trioxo-tetrahydro-pyrimidin-(5E)-ylidenemethyl]-hydrazide] | > 300 µM
2 | Cc1c(C(=O)O)cccc1-n1c(C)cc(CN=Nc2ccc([N+](=O)[O-])cn2)c1C | > 300 µM
3 | CC1(C)CC(=O)C2=C(C1)OC(=N)C(C#N)C2c1ccc2c(c1)OCO2 (configuration not stated) [SMR000514966] | > 300 µM
4 | Cc1ccc(C(=O)C2C(=O)C(=O)N(Cc3ccco3)C2c2cccc(Br)c2)o1 (configuration not stated) [2-(3-bromophenyl)-1-(2-furanylmethyl)-4-hydroxy-3-[(5-methyl-2-furanyl)-oxomethyl]-2H-pyrrol-5-one] | > 300 µM
5 | COc1ccc(C2C3=C(CCCC3=O)OC(=N)C2C#N)cc1OC (configuration not stated) [2-amino-4-(3,4-dimethoxyphenyl)-5-keto-4,6,7,8-tetrahydrochromene-3-carbonitrile] | > 300 µM
6 | COc1ccc(C(=O)CC2=NCC3c4ccccc4CCN3C2=O)cc1 (configuration not stated) [(3Z)-3-[2-(4-methoxyphenyl)-2-oxidanylidene-ethylidene]-2,6,7,11b-tetrahydro-1H-pyrazino[2,1-a]isoquinolin-4-one] | > 300 µM
7 | CC(C)c1nnc(N2C(=O)C(=O)C(C(=O)c3cccs3)C2c2ccccc2)s1 (configuration not stated) [3-hydroxy-1-(5-isopropyl-1,3,4-thiadiazol-2-yl)-5-phenyl-4-(2-thenoyl)-3-pyrrolin-2-one] | 33.9 µM
8 | O=C1N=C(N2C=CC(c3ccncc3)C=C2)C(=CN=NC(=O)c2ccccc2O)S1 [SMR000646350] | 11.9 µM
9 | Cc1nnc(=O)[nH]c1N=NCC1C=CC(=O)C([N+](=O)[O-])=C1 (configuration not stated) [MLS000585487] | 169 µM
10 | N#CC1C(=N)OC2=C(C(=O)CC(c3ccccc3)C2)C1c1ccc2c(c1)OCO2 (configuration not stated) | > 300 µM
11 | Cc1ccc(CN=Nc2ncnc3nc[nH]c23)cc1 [MLS000419179] | > 300 µM
12 | Cc1cc(N2C(=O)C(=O)C(C(=O)c3cc4ccccc4o3)C2c2ccc([N+](=O)[O-])cc2)no1 (configuration not stated) [3-(1-benzofuran-2-carbonyl)-4-hydroxy-1-(5-methyl-1,2-oxazol-3-yl)-2-(4-nitrophenyl)-2H-pyrrol-5-one] | > 300 µM
13 | Cc1[nH]c2ccccc2c1/C=C1\N=C(c2ccc(F)cc2)OC1=O [2-(4-fluorophenyl)-4-[(2-methyl-1H-indol-3-yl)methylene]-1,3-oxazol-5(4H)-one] | > 300 µM
14 | C[C@@H]1O[C@@H](O[C@@H]2[C@@H](O)[C@H](OCCc3ccc(O)c(O)c3)O[C@H](CO)[C@H]2OC(=O)/C=C/c2ccc(O)c(O)c2)[C@H](O)[C@H](O)[C@H]1O [((2R,3R,4R,5R,6R)-6-(3,4-dihydroxyphenethoxy)-5-hydroxy-2-(hydroxymethyl)-4-((2S,3R,4R,5R,6S)-3,4,5-trihydroxy-6-methyltetrahydro-2H-pyran-2-yloxy)tetrahydro-2H-pyran-3-yl) 3-(3,4-dihydroxyphenyl)acrylate] | 20.6 µM
15 | CC1(C)CC(=O)C2=C(C1)OC(=N)C(C#N)[C@@]21C(=O)N(CC(N)=O)c2ccccc21 (stereo partly drawn) [2-[(4R)-2-amino-3-cyano-2',5-diketo-7,7-dimethyl-spiro[6,8-dihydrochromene-4,3'-indoline]-1'-yl]acetamide] | > 300 µM
16 | O=C(NN=Cc1c(O)ccc2ccccc12)Nc1ccccc1 | 105 µM
17 | Cc1c(NC=C2C(=O)N(C)C(=O)c3ccccc32)c(=O)n(-c2ccccc2)n1C [(4E)-4-[[(1,5-dimethyl-3-oxo-2-phenyl-4-pyrazolyl)amino]methylidene]-2-methylisoquinoline-1,3-dione] | > 300 µM
18 | NC(=NNC=c1ccc(=C2C=CC(=O)C(C(=O)O)=C2)o1)N[N+](=O)[O-] [5-(5-{2-[amino(nitroimino)methyl]carbonohydrazonoyl}-2-furyl)-2-hydroxybenzoic acid] | 29.9 µM
19 | O=C(/C=C/c1ccco1)NCC(=O)NNC1=c2ccccc2=NC1=O [MLS001075666] | 13.1 µM

Row | SMILES | EC50
20 | Cc1cc(O)c(C(C)C)cc1Nc1csc(=O)[nH]1 [SMR000034713] | 38.9 µM
21 | Cc1[nH]n(C(N)=S)c(=O)c1N=Nc1ccc(S(N)(=O)=O)cc1 [3-methyl-5-oxidanylidene-4-[(4-sulfamoylphenyl)diazenyl]-4H-pyrazole-1-carbothioamide] | 19.7 µM
22 | Cc1ccccc1NN=C1C(=O)N(C)c2ccccc21 [MLS001203477] | > 300 µM
23 | COc1ccc(CCN2C(=O)NC(=O)C(=CNc3ccc(NC(C)=O)cc3)C2=O)cc1OC [MLS000332913] | > 300 µM
24 | COc1ccc(N=Cc2cc3c(cc2O)OC(=N)C(C#N)C3c2ccccc2)cc1 (configuration not stated) [(6E)-2-amino-6-[(4-methoxyanilino)methylidene]-7-oxo-4-phenyl-4H-1-benzopyran-3-carbonitrile] | > 300 µM
25 | CCCCCCN1C(=O)C(=CNc2ccccc2N2CCOCC2)C(=O)NC1=S [MLS000333666] | > 300 µM
26 | O=C(O)c1ccccc1N=NCc1c(Sc2nnnn2-c2ccccc2)nc2ccccn2c1=O [MLS000775267] | > 300 µM
27 | O=C1NC(=S)N(c2ccc(F)cc2)C(=O)C1=Cc1ccco1 [(5E)-1-(4-fluorophenyl)-5-(2-furanylmethylidene)-2-sulfanylidene-1,3-diazinane-4,6-dione] | 10.4 µM
28 | CSc1nnc(N2C(=O)C(=O)C(C(=O)c3ccco3)C2c2ccccc2)s1 (configuration not stated) [3-(furan-2-carbonyl)-4-hydroxy-1-(5-methylsulfanyl-1,3,4-thiadiazol-2-yl)-2-phenyl-2H-pyrrol-5-one] | > 300 µM
29 | CCOc1cccc(C2C(C(=O)c3ccc(C)o3)C(=O)C(=O)N2c2nccs2)c1 (configuration not stated) [2-(3-ethoxyphenyl)-3-(5-methylfuran-2-yl)carbonyl-4-oxidanyl-1-(1,3-thiazol-2-yl)-2H-pyrrol-5-one] | 1.41 µM
30 | N#CC1C(=N)OC2=C(C(=O)CCC2)C1c1ccc(OC(=O)N2CCOCC2)cc1 (configuration not stated) [4-(2-amino-3-cyano-5-oxo-5,6,7,8-tetrahydro-4H-chromen-4-yl)phenyl morpholine-4-carboxylate] | > 300 µM
31 | C=c1[nH]n(-c2cccc(C(=O)O)c2)c(=O)c1=CC=Cc1ccco1 [SMR000113614] | 19.9 µM
32 | CCCCCCN1C(=O)NC(=O)C(=CNCCCn2ccnc2)C1=O [(5E)-1-hexyl-5-[[3-(1-imidazolyl)propylamino]methylidene]-1,3-diazinane-2,4,6-trione] | > 300 µM
33 | CC1=C(C#N)C(=O)N(C)C(=O)C1=CNNc1ccc(F)cc1 [MLS000702698] | > 300 µM
34 | Cc1ncc(C=O)c(CNNC(=O)c2cc(Br)ccc2O)c1O [5-bromanyl-N'-[(Z)-[5-(hydroxymethyl)-2-methyl-3-oxidanylidene-pyridin-4-ylidene]methyl]-2-oxidanyl-benzohydrazide] | > 300 µM
35 | CCN(CC)c1ccc(NC=C2C(=O)NC(=O)N(Cc3ccccc3)C2=O)cc1 [(5E)-1-benzyl-5-[[4-(diethylamino)anilino]methylene]barbituric acid] | 30.1 µM and > 300 µM
36 | O=C1C(=Nc2ccccc2O)C(Cl)C(=O)N1c1ccccc1 (configuration not stated) [3-Chloro-4-(2-hydroxy-phenylamino)-1-phenyl-pyrrole-2,5-dione] | > 300 µM
37 | N#CC1C(=N)Oc2cc(O)c(Cl)cc2C1c1ccccc1F (configuration not stated) [2-Amino-6-chloro-4-(2-fluoro-phenyl)-7-hydroxy-4H-chromene-3-carbonitrile] | > 300 µM

Source: BindingDB's records for doi:10.7270/Q28G8J4C (Broad Institute, 2009)
